Values quoted from earlier work in patent publication US20070191228A1, “Natural herbicide” (priority 2005, published 2007).

Tests used:
[1] = system: sorghum (Sorghhum bicolor (L.)); details: Owens 1973
[2] = system: large crabgrass (Digitaria sanguimalis); details: Owens 1973

N[C@H](CO)CO/C=C/[C@H](N)C(=O)O [Rhizobitoxine, rhizobitoxine]
herbicidal activity [1]: herbicidal | herbicidal activity [2]: herbicidal
